Values joined by “and” are separate entries in the source; they are usually repeats but may differ in a detail not shown here. Equal values may be shown once.
Legend:
Rattus norvegicus [1] = assay: Anti-inflammatory activity in Wistar rat assessed as inhibition of carrageenan-induced paw edema at 10 mg/kg, ip pretreated for 1 hr followed by carrageenan challenge and measured after 2 hr relative to control (reference value: 0.00 +/-0.03 %); format: functional; settings: time 3 hrs
Peritoneal macrophage [2] = assay: Antiinflammatory activity in […] mouse Peritoneal macrophages assessed as inhibition of LPS-induced NO production at 10 uM preincubated for 1 hr followed by LPS stimulation measured after 24 hrs by Griess method relative to control (reference value: 0.0 %); format: functional; parameters: scale not given: the % may be the effect or the level left; settings: time 25 hrs
Candida albicans = assay: Antifungal activity against Candida albicans incubated for 18 to 24 hrs by CLSI method; format: functional; settings: time 18-24 hrs
Rattus norvegicus [3] = assay: Antiinflammatory activity in Wistar rat model of carrageenan-induced paw edema assessed as reduction in thickness of paw edema at 10 mg/kg, ip pretreated for 1 hr followed by carrageenan challenge and measured after 24 hrs (reference value: 0.83 +/-0.08 mm); format: functional; settings: time 25 hrs
Streptococcus pyogenes = assay: Antibacterial activity against Streptococcus pyogenes ATCC 19615 incubated for 18 hrs by agar dilution method; format: functional
Pseudomonas aeruginosa = assay: Antibacterial activity against Pseudomonas aeruginosa ATCC 27853 incubated for 18 hrs by agar dilution assay; format: functional
Salmonella typhimurium = assay: Antibacterial activity against Salmonella typhimurium ATCC 19430 incubated for 18 hrs by agar dilution assay; format: functional, Salmonella enterica subsp. enterica serovar Typhimurium; settings: Salmonella enterica
Rattus norvegicus [4] = assay: Antiinflammatory activity in Wistar rat model of carrageenan-induced paw edema assessed as reduction in thickness of paw edema at 10 mg/kg, ip pretreated for 1 hr followed by carrageenan challenge and measured after 1 hr (reference value: 2.41 +/-0.05 mm); format: functional; settings: time 1 hr after carrageenan
Rattus norvegicus [5] = assay: Antiinflammatory activity in Wistar rat model of carrageenan-induced paw edema assessed as reduction in thickness of paw edema at 10 mg/kg, ip pretreated for 1 hr followed by carrageenan challenge and measured after 3 hrs (reference value: 1.79 +/-0.07 mm); format: functional; settings: time 4 hrs
Rattus norvegicus [6] = assay: Antiinflammatory activity in Wistar rat model of carrageenan-induced paw edema assessed as reduction in thickness of paw edema at 10 mg/kg, ip pretreated for 1 hr followed by carrageenan challenge and measured after 2 hrs (reference value: 2.06 +/-0.09 mm); format: functional; settings: time 3 hrs
Rattus norvegicus [7] = assay: Anti-inflammatory activity in Wistar rat assessed as inhibition of carrageenan-induced paw edema at 10 mg/kg, ip pretreated for 1 hr followed by carrageenan challenge and measured after 1 hr relative to control (reference value: 0.00 +/-0.02 %); format: functional; settings: time 2 hrs
Peritoneal macrophage [8] = assay: Antiinflammatory activity in […] mouse Peritoneal macrophages assessed as reduction in LPS-induced NO production by measuring reduction in stimulation index at 10 uM preincubated for 1 hr followed by LPS stimulation measured after 24 hrs by Griess method (reference value: 27.31 +/- 2.56 uM); format: functional; settings: time 25 hrs
Rattus norvegicus [9] = assay: Antiinflammatory activity in Wistar rat model of carrageenan-induced paw edema assessed as reduction in thickness of paw edema at 10 mg/kg, ip pretreated for 1 hr followed by carrageenan challenge and measured after 4 hrs (reference value: 1.40 +/-0.10 mm); format: functional; settings: time 5 hrs
Staphylococcus aureus = assay: Antibacterial activity against Staphylococcus aureus ATCC 25923 incubated for 18 hrs by agar dilution method; format: functional
Splenocyte [10] = assay: Immunomodulatory activity in Swiss albino mouse splenocytes assessed as cell viability at 10 uM by measuring stimulation index incubated for 72 hrs in presence of mitogenic stimulus phytohaemagglutinin by MTT assay (reference value: 1.00 +/- 0.24); format: functional
Rattus norvegicus [11] = assay: Anti-inflammatory activity in Wistar rat assessed as inhibition of carrageenan-induced paw edema at 10 mg/kg, ip pretreated for 1 hr followed by carrageenan challenge and measured after 4 hr relative to indomethacin; format: functional; settings: time 5 hrs
Rattus norvegicus [12] = assay: Anti-inflammatory activity in Wistar rat assessed as inhibition of carrageenan-induced paw edema at 10 mg/kg, ip pretreated for 1 hr followed by carrageenan challenge and measured after 4 hr relative to control (reference value: 0.00 +/-0.4 %); format: functional; settings: time 5 hrs
Rattus norvegicus [13] = assay: Anti-inflammatory activity in Wistar rat assessed as inhibition of carrageenan-induced paw edema at 10 mg/kg, ip pretreated for 1 hr followed by carrageenan challenge and measured after 24 hr relative to control (reference value: 0.00 +/-0.3 %); format: functional; settings: time 25 hrs
Rattus norvegicus [14] = assay: Anti-inflammatory activity in Wistar rat assessed as inhibition of carrageenan-induced paw edema at 10 mg/kg, ip pretreated for 1 hr followed by carrageenan challenge and measured after 3 hr relative to control (reference value: 0.00 +/-0.1 %); format: functional; settings: time 4 hrs
Splenocyte [15] = assay: Immunomodulatory activity in Swiss albino mouse splenocytes assessed as cell viability at 10 uM by measuring inhibition of stimulation index incubated for 72 hrs in presence of mitogenic stimulus phytohaemagglutinin by MTT assay relative to indomethacin; format: functional; settings: read-out: Activity

SMILES	inhibition in vivo at 10 mg/kg (Rattus norvegicus [1])	Activity (Peritoneal macrophage [2])	MIC (Candida albicans)	Activity (Rattus norvegicus [3])	MIC (Streptococcus pyogenes)	MIC (Pseudomonas aeruginosa)	MIC (Salmonella typhimurium)	Activity (Rattus norvegicus [4])	Activity (Rattus norvegicus [5])	Activity (Rattus norvegicus [6])	inhibition in vivo at 10 mg/kg (Rattus norvegicus [7])	Activity (Peritoneal macrophage [8])	Activity (Rattus norvegicus [9])	MIC (Staphylococcus aureus)	Activity_index (Splenocyte [10])	inhibition in vivo at 10 mg/kg (Rattus norvegicus [11])	inhibition in vivo at 10 mg/kg (Rattus norvegicus [12])	inhibition in vivo at 10 mg/kg (Rattus norvegicus [13])	inhibition in vivo at 10 mg/kg (Rattus norvegicus [14])	viability at 10 µM (Splenocyte [15])
CC[C@H](C)[C@H](NC(=O)OC(C)(C)C)C(=O)Oc1ccc(/C=C/C(=O)/C=C(O)/C=C/c2ccc(OC(=O)[C@@H](NC(=O)OC(C)(C)C)[C@@H](C)CC)c(OC)c2)cc1OC	38%	23.82%	2 µg/mL and 2.52 µM	0.49 mm	0.25 µg/mL and 0.314 µM	1 µg/mL and 1.26 µM	0.125 µg/mL and 0.157 µM	1.61 mm	0.91 mm	1.27 mm	33%	20.81 µM	0.69 mm	0.125 µg/mL and 0.157 µM	2.07	59%	51%	41%	49%	58.3%
COc1cc(/C=C/C(=O)/C=C(O)/C=C/c2ccc(OC(=O)[C@@H](C)NC(=O)OC(C)(C)C)c(OC)c2)ccc1OC(=O)[C@@H](C)NC(=O)OC(C)(C)C	29%	23.82%	0.5 µg/mL and 0.703 µM	0.52 mm	1 µg/mL and 1.41 µM	0.25 µg/mL and 0.352 µM	0.25 µg/mL and 0.352 µM	1.87 mm	1.09 mm	1.46 mm	22%	20.81 µM	0.81 mm	0.125 µg/mL and 0.176 µM	2.07	48%	42%	37%	39%	58.3%
COc1cc(/C=C/C(=O)/C=C(O)/C=C/c2ccc(OC(=O)[C@@H](NC(=O)OC(C)(C)C)C(C)C)c(OC)c2)ccc1OC(=O)[C@@H](NC(=O)OC(C)(C)C)C(C)C	24%	29.35%	1 µg/mL and 1.3 µM	0.58 mm	2 µg/mL and 2.61 µM	2 µg/mL and 2.61 µM	0.25 µg/mL and 0.326 µM	2.09 mm	1.34 mm	1.57 mm	13%	19.29 µM	0.8 mm	0.25 µg/mL and 0.326 µM	1.84	49%	43%	30%	25%	65.6%
COc1cc(/C=C/C(=O)/C=C(O)/C=C/c2ccc(OC(=O)CCNC(=O)OC(C)(C)C)c(OC)c2)ccc1OC(=O)CCNC(=O)OC(C)(C)C	33%	32.81%	0.5 µg/mL and 0.703 µM	0.6 mm	0.25 µg/mL and 0.352 µM	0.25 µg/mL and 0.352 µM	0.5 µg/mL and 0.703 µM	1.66 mm	0.99 mm	1.38 mm	31%	18.35 µM	0.55 mm	0.25 µg/mL and 0.352 µM	1.7	70%	61%	28%	45%	71.1%
COc1cc(/C=C/C(=O)/C=C(O)/C=C/c2ccc(OC(=O)C(C)NC(=O)OC(C)(C)C)c(OC)c2)ccc1OC(=O)C(C)NC(=O)OC(C)(C)C (stereo not given)	16%	30.88%	0.5 µg/mL and 0.703 µM	0.59 mm	0.125 µg/mL and 0.176 µM	0.25 µg/mL and 0.352 µM	0.25 µg/mL and 0.352 µM	2.15 mm	1.34 mm	1.74 mm	11%	18.88 µM	0.84 mm	0.25 µg/mL and 0.352 µM	1.78	46%	40%	29%	25%	67.9%
COc1cc(/C=C/C(=O)/C=C(O)/C=C/c2ccc(OC(=O)[C@H](C)NC(=O)OC(C)(C)C)c(OC)c2)ccc1OC(=O)[C@H](C)NC(=O)OC(C)(C)C	11%	22.02%	1 µg/mL and 1.41 µM	0.79 mm	0.25 µg/mL and 0.352 µM	1 µg/mL and 1.41 µM	0.125 µg/mL and 0.176 µM	2.26 mm	1.44 mm	1.84 mm	6%	21.3 µM	1.04 mm	0.125 µg/mL and 0.176 µM	2.71	32%	28%	5%	20%	44.6%
